# In publication PMC8243516, “Inhibition of lysosomal phospholipase A2 predicts drug-induced phospholipidosis” (Journal of Lipid Research, 2021):
# “Also recorded” adds a separate entry of the source. Where two headings read alike, the source gives them in different places.
# How the values were obtained:
# [1] = target: T1, recombinant mouse LPLA2 (PLA2G15) (Mus musculus, UniProt Q8VEB4); assay: Transacylase activity of LPLA2 (1-O-acyl-N-acetylsphingosine synthase, cell-free liposome assay); format: biochemical; details: read-out: LPLA2 IC50
# T1 construct: purchased Proteos Inc. (Kalamazoo, MI)
# T1 sequence (Q8VEB4 34-412): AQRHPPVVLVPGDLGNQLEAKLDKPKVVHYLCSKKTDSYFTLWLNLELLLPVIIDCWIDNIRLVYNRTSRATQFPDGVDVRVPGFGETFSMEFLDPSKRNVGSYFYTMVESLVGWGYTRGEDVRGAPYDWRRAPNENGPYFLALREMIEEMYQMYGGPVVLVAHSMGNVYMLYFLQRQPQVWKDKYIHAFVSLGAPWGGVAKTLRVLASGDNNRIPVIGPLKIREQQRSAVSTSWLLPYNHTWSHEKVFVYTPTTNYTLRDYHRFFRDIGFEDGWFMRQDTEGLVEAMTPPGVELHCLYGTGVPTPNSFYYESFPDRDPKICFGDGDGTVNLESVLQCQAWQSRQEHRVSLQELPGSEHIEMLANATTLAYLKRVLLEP
# [2] = target: T2, LPLA2 (Mus musculus, UniProt Q8VEB4); assay: LPLA2 thermal stability measurement (SYPRO Orange Tm); format: binding; details: N=3 ± SD
# T2 construct: purchased Proteos Inc. (Kalamazoo, MI)
# T2 sequence (Q8VEB4 34-412): T1 sequence (Q8VEB4 34-412)
# [3] = tested on: MDCK cells
# [4] = target: T2, LPLA2; assay: LPLA2 esterase assay with pNPB; format: biochemical; details: pNPB substrate, no liposomes
# Experimental: pNPB was used to directly measure the activity of LPLA2. pNPB is a water-soluble substrate that can directly access the catalytic site in the absence of liposomes ([25]). A reaction mixture of pNPB (0.2 mM) and cationic amphiphilic compounds at varying concentrations in sodium citrate buffer (pH 4.5) was prepared and prewarmed to 37°C for 5 min in a total volume of 500 μl. The reaction was initiated by the addition of recombinant LPLA2 (5 μg). At predetermined times, 120 μl of the reaction mixture was transferred to a tube containing 120 μl of 0.2 M NaHCO3 and kept on ice. The cold reaction product was subsequently warmed to 37°C, and the absorbance of the reaction product, p-nitrophenoxide, was measured at 400 nm with a Beckman Du-640 spectrophotometer.
# [5] = target: T3, LPLA2 binding to DOPC/sulfatide liposomes (Mus musculus, UniProt Q8VEB4); assay: Liposome LPLA2 cosedimentation assay; details: 150,000 g
# T3 construct: purchased Proteos Inc. (Kalamazoo, MI)
# T3 sequence (Q8VEB4 34-412): T1 sequence (Q8VEB4 34-412)
# [6] = tested on: MDCK cells; assay: LipidTOX red particle quantification by fluorescence microscopy; format: cell-based
# [7] = target: T2, LPLA2; assay: LPLA2 transacylation activity toward p-NPB (1-O-butanoyl-N-acetylsphingosine formation); format: biochemical; details: 250 nM fosinopril; LPLA2, N-acetylsphingosine and p-NPB as monodispersion
# [8] = ref Pubchem and chEMBL database; cited from earlier work
# [9] = tested on: MDCK cells; assay: Screening phospholipidosis assay (LipidTOX Red / NucBlue Live fluorescence ratio); details: LipidTOX Red to NucBlue Live fluorescence ratio, 24 h, 15 μM
# [10] = LPLA2 dependent 1-O-acyl N-acetylsphingosine synthase activity
# [11] = 1-O-acyl N-acetylsphingosine synthase activity, pH 4.5, DOPC/sulfatide liposomes
IC50 [1],Inhibition of soluble esterase activity of LPLA2 [4],Cosedimentation of liposomes and recombinant LPLA2 [5],Inhibition of 1-O-butanoyl-N-acetylsphingosine formation [7],Compound,"IC50 [1, 10]","(ΔTm)c-(ΔTm)d, difference in melting temperature of LPLA2 alone or in the presence of drug [2]",Ratio (15 μM) [3],"IC50 [1, 11]",Percent area ([6]; 325 nM),"Increase in LipidTOX Red particle number versus controls ([6]; 325 nM, 24 h)","LipidTOX Red staining ([6]; 24 h, versus non-treated control)",Cell number ([6]; versus non-treated control),LipidTOX Red particle number (in words) ([6]; versus non-treated control),Mean fluorescence intensity (MFI) ([6]; versus non-treated control),pKa (basic) [8],Ratio (15 μM) [9]
–,–,–,–,C[C@H]1[C@H]2CC[C@H]3[C@@H]4CC=C5C[C@@H](N(C)C)CC[C@]5(C)[C@H]4CC[C@]23CN1C [Conessin],31.3 µM,0.20 ± 01 °C,1.08,–,–,–,–,–,–,–,–,–
–,–,–,–,"Cc1ccc2c(Cl)cc(Cl)c(O)c2n1 [5,7 Dichloro-8-hydroxy-2-methyl quinolone]",1180 µM,1.88 ± 0.9 °C,0.29,1180 µM,–,–,–,–,–,–,–,–
–,–,–,–,CC1(C)[C@@H](O)CC[C@]2(C)[C@H]3C(=O)C=C4[C@@H]5C[C@@](C)(C(=O)O)CC[C@]5(C)CC[C@@]4(C)[C@]3(C)CC[C@@H]12 [18 Beta-glycyrrhetinic acid],2430 µM,1.88 ± 0.6 °C,0.4,–,–,–,–,–,–,–,–,–
0.18 µM,no inhibition,partially inhibited,no inhibition,CCC(=O)O[C@@H](O[P@](=O)(CCCCc1ccccc1)CC(=O)N1C[C@H](C2CCCCC2)C[C@H]1C(=O)O)C(C)C [Fosinopril],0.181 µM,-0.90 ± 0.1 °C,–,0.18 µM,increases,~20 fold,significant increase,No change,significant increase; also recorded: significantly increased,significant increase; also recorded: increases,-4.4,0.67
